From patent publication US9580426B2, “Compounds that expand hematopoietic stem cells” (Novartis AG, priority 2008, dated 2017)

Columns and labels:
AHR = molecular target: T1, AHR (Mus musculus, UniProt P30561); assay: Dioxin induced AHR dependent transcription, murine cells; format: cell-based
T1 construct: endogenous in cells; host or cells: unnamed murine cells
T1 sequence (P30561 10-848): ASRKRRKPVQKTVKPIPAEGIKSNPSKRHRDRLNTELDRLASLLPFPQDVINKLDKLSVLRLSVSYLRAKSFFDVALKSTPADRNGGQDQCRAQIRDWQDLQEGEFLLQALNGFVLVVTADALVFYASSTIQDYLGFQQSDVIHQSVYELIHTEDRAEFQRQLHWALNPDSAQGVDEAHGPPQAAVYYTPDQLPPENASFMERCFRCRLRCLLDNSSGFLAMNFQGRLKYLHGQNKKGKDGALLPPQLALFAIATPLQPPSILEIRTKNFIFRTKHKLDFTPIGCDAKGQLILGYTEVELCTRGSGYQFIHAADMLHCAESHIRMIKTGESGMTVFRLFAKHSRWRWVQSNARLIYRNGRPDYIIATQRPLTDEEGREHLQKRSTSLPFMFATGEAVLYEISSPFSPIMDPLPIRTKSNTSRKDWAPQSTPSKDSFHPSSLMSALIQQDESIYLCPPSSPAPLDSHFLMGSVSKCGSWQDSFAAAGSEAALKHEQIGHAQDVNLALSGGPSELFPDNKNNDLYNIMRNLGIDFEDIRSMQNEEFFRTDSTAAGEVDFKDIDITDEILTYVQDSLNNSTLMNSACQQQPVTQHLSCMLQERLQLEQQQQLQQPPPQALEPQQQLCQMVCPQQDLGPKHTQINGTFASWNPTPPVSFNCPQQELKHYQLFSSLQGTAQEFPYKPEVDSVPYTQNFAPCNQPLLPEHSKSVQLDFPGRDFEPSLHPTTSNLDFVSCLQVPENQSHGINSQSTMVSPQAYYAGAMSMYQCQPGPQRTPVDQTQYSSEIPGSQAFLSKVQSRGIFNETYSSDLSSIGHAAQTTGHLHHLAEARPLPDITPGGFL
Description: Further, the ability of Example 1 to block 2,3,7,8-tetrachlorodibenzo-p-dioxin (TCDD, dioxin)-mediated CYP1B1 mRNA expression by qPCR in mPB-derived CD34^+ cells was determined. Treatment with TCDD (3 nM) caused a 4.5-fold increase in the level of CYP1B1 mRNA compared with the vehicle control (0.01% toluene). […] To determine the effects of Example 1 in AHR transcription the ability of Example 1 to inhibit a dioxin-induced AHR dependent luciferase reporter gene assay was tested.

CB CD34+ cells = assay: Determination of CD34+ cell subsets by FACS; format: cell-based, human
Description: Surface Antigen Analysis: The cells are washed with staining media (Hanks balanced salt solution containing FBS (2%) and EDTA (2 mM)) and stained (at 4° C. for 30 minutes) with indicated primary conjugated antibodies. The cells are washed in the previously described buffer and analyzed using a BD LSR II flow cytometer (Becton Dickinson, San Jose, Calif.). The cells are passed at a rate of up to 1000 cells/second using 488-nm argon and 633-nm HeNe laser beams as the light source for excitation. Emission of 10^4 cells is measured using logarithmic amplification and analyzed using FlowJo software (TreeStar Inc. Ashland, Oreg.). Cells stained with primary conjugated isotype control antibodies are used to determine background fluorescence.
Determination of CD34^+ cell subsets: The percentages of CD34^+ cell subsets are determined from aliquots of the cell culture. Cells were stained with APC anti-Thy1.1, PerCP anti-CD34, PECy7 anti CD45RA, FITC anti CD38, and PE anti-CD133 for determination of CD34^+Thy1.1^+, CD34^+CD45RA^−, CD34^+CD38^−, CD133^+CD38^− and CD34^+CD133^+ cells. Antibodies to CD34, CD38, Thy1.1 and CD45RA were purchased from Becton Dickinson and antibodies to CD133 were purchased Miltenyi Biotec. FACS analysis results of these subsets are given as percentage of the total population. The absolute number of each population of cells in the culture is calculated from the total number of cells multiplied by the percentage of each population. Starting with CB CD34+ cell, after five weeks the total cell number in the cultures increased on average greater than 2-fold in the 4-(2-(2-(benzo[b]thiophen-3-yl)-9-isopropyl-9H-purin-6-ylamino)ethyl)phenol (compound 1, table 1; example 1) 1 micromolar treated cells compared to control cultures. More importantly, >50% of 4-(2-(2-(benzo[b]thiophen-3-yl)-9-isopropyl-9H-purin-6-ylamino)ethyl)phenol (compound 1, table 1; example 1) cultured cells were CD34^+ compared to <10% of vehicle cultured cells resulting in a greater than 10-fold expansion of CD34^+ cells compared to control and a greater than 10.000-fold expansion compared to input cells. In addition, the presence of 1 micromolar 4-(2-(2-(benzo[b]thiophen-3-yl)-9-isopropyl-9H-purin-6-ylamino)ethyl)phenol (compound 1, table 1; example 1) increased both the percentage and total numbers of the CD34^+ subpopulations, CD34^+CD45RA^−, CD34^+CD38^−, CD133^+CD38^−, and CD34^+CD133^+ resulting in a net expansion of greater than 30-fold for each subset.

mPB-derived CD34+ cells = assay: Genome-wide transcriptional profiling; format: cell-based, human; settings: 24 hours
Text: The two genes that were the most highly repressed by treatment with Example 1 (cytochrome P450 1B1 [CYP1B1] and the aryl hydrocarbon receptor repressor [AHRR]) are transcriptionally regulated by the aryl hydrocarbon receptor (AHR). Therefore, compounds of the invention could be acting as an antagonist of AHR signaling.

mPB-derived CD34+ cell = assay: 7 day culture with AHR antagonists, expansion of CD34+ cells; format: cell-based, human; settings: 0.75 μM; 7 days
Description: To further explore the role of AHR signaling in HSCs two other AHR antagonists (alpha-naphthoflavone and CH-223191) were tested. Both compounds lead to dose dependent increases in the number of CD34^+ cells when cultured with mPB-derived CD34^+ cell for 7 days: inclusion of 1 μM CH223191 afforded a 2.2-fold expansion of CD34^+ cells; 0.75 μM α-naphthoflavone afforded a 1.9-fold expansion of CD34^+ cells while 0.75 μM Example 1 afforded a 3.4-fold expansion of total CD34^+ cells. […] Forty-eight hours following transduction, CD34+GFP^+ cells were purified by cell sorting and the levels of AHR were determined by qPCR. Both AHR targeting shRNAs led to decreases in AHR expression following transduction (81% with sh111 and 51% with sh242). These decreases were not seen in cells lacking GFP or in cells transduced with control virus.

murine HSC = assay: Activity on murine HSC; format: cell-based

agonist activity (AHR dependent transcription) (AHR): only weak agonist activity
inhibition of dioxin induced transcription (AHR): only weakly inhibited
down-regulation of 5 genes (most repressed: CYP1B1, AHRR) (mPB-derived CD34+ cells; 1 μM): > 70%
SMILES: CC(C)n1cnc2c(NCCc3ccc(O)cc3)nc(-c3csc4ccccc34)nc21 [Example 1, 4-(2-(2-(benzo[b]thiophen-3-yl)-9-isopropyl-9H-purin-6-ylamino)ethyl)phenol]
net expansion of each subset CD34+CD45RA-, CD34+CD38-, CD133+CD38-, CD34+CD133+ (CB CD34+ cells; 1 micromolar): greater than 30 fold
increase of total cell number compared to control cultures (CB CD34+ cells; 1 micromolar, after five weeks): greater than 2 fold
expansion of CD34+ cells compared to control (CB CD34+ cells; five weeks): greater than 10 fold
expansion of CD34+ cells compared to input cells (CB CD34+ cells; five weeks): greater than 10.000 fold
percentage of cultured cells that were CD34+ (CB CD34+ cells; five weeks, vehicle <10%): > 50%
up-regulation of 5 genes of >50,000 probe sets (mPB-derived CD34+ cells): greater than 3 fold
expansion of CD34+ cells (mPB-derived CD34+ cell): 3.4 fold
activity on murine HSC (murine HSC): lack of activity
